Source: patent US20220041641A1, “QUATERNARY AMMONIUM SALTS AS INHIBITORS OF TRIMETHYLAMINE PRODUCTION” (Senda Biosciences, Inc., priority 2018, published 2022)
“And” between values parts separate entries of the source, which are not always exact repeats. Identical values can stand only once. Counter-ions that a name gives are not always drawn. Like-named read-outs stand apart in the source and are kept apart here.

What was measured:
[1] = target: CutC from Clostridium sporogenes (Clostridium sporogenes, UniProt A0AAE4Z0A8); assay: Cell-based assay for TMA production from a native producer (C. sporogenes); conditions: read-out: IC50 Whole cell C. sporogenes; d9-TMA from 1 mM d9-choline, 5 h, 37° C.; run once; value 10 given when no fit or % TMA remaining at 10 μM higher than 15%
Text: (§1) In each bacterium, CutC was modified into its activated form by a cognate activating enzyme, CutD (protein EDU36696.1 for C. sporogenes; protein WP_004249185.1 for P. mirabilis). […] Trimethylamine may subsequently be converted by human enzymes such as flavin monooxygenase 3 to trimethylamine N-oxide, which might be associated with negative health consequences in humans.
(§2) A compound's ability to inhibit CutC from Proteus mirabilis and C. sporogenes from converting choline into trimethylamine was tested in cells as described. A BHI blood plate was inoculated with a frozen stock of Proteus mirabilis or Clostridium sporogenes under anaerobic conditions. A single colony was isolated from the plate and inoculated into 5 mL BHI supplemented with 1 mM choline under anaerobic conditions. The liquid cultures were grown overnight at 37° C.
(§3) To prepare each sample, 300 μL of the saturated culture was then inoculated into a 30 mL dilution blank under anaerobic conditions. 1 mM (trimethyl-d9)-choline and a sufficient amount of a compound to obtain a final concentration of 10 μM were added to the inoculated dilution blank. […] The mixture was incubated at 37° C. for 5 h. […] After centrifugation, the samples were analyzed by LCMS to determine the amount of d9-TMA produced.

[2] = target: CutC from Proteus mirabilis (Proteus mirabilis, UniProt B4EYG1); assay: Cell-based assay for TMA production from a native producer (P. mirabilis)
Text: as §1, §2, §3

[3] = system: CutC/D enzyme; assay: Acute mouse model (plasma TMAO on choline diet); assay type: in vivo, male C57BL/6 mice; conditions: Table 4b; for % change from vehicle control + choline diet: 10 mg/kg oral gavage days 1-3; for Mean plasma TMAO: 10 mg/kg oral gavage days 1-3, plasma 20 h after last gavage
Description: The following acute mouse model may be used to determine inhibition of the CutC/D enzyme and thus the inhibition of the formation of trimethylamine (TMA) from choline.
On day 1, male C57BL/6 mice were given a chemically defined diet (Tekland Global Rodent Diet 2018) containing 1.0% choline (g/g) for the duration of the experiment. Concurrently on day 1, mice were orally gavaged with 200 μL of compounds of interest (formulated in water). Mice were orally gavaged with the compounds and vehicle control again on day 2 and day 3 at a fixed time. Twenty hours after the last gavage, mice were sacrificed, and plasma was collected and prepared for detection of trimethylamine-N-oxide (TMAO) via liquid chromatography with on-line tandem mass spectrometry (LC-MS/MS). Food consumption and mouse weight were measured each day.
Plasma samples were prepared for LCMS as follows: An aliquot of 20 μL plasma sample was protein precipitated with 200 μL internal standard solution (100 ng/mL Labetalol & 100 ng/mL Tolbutamide & 100 ng/mL Diclofenac in acetonitrile, the mixture was vortex-mixed and centrifuged at 4000 rpm for 15 min, 4° C. An aliquot of 100 μL supernatant was transferred to the sample plate for LCMS injection. 1 μL of sample was injected onto an LC column for TMAO LCMS analysis.
Concentrations of TMAO were determined with a calibration curve ranging 0.05-100 μM for d9-TMAO in control plasma.

[4] = d9-TMA from 1 mM d9-choline, 5 h, 37° C.; value 10 given when no fit or % TMA remaining at 10 μM higher than 15%; read-out: Average IC50 Whole cell P. mirabilis

CutC from Proteus mirabilis, sequence (B4EYG1 entry or part of it): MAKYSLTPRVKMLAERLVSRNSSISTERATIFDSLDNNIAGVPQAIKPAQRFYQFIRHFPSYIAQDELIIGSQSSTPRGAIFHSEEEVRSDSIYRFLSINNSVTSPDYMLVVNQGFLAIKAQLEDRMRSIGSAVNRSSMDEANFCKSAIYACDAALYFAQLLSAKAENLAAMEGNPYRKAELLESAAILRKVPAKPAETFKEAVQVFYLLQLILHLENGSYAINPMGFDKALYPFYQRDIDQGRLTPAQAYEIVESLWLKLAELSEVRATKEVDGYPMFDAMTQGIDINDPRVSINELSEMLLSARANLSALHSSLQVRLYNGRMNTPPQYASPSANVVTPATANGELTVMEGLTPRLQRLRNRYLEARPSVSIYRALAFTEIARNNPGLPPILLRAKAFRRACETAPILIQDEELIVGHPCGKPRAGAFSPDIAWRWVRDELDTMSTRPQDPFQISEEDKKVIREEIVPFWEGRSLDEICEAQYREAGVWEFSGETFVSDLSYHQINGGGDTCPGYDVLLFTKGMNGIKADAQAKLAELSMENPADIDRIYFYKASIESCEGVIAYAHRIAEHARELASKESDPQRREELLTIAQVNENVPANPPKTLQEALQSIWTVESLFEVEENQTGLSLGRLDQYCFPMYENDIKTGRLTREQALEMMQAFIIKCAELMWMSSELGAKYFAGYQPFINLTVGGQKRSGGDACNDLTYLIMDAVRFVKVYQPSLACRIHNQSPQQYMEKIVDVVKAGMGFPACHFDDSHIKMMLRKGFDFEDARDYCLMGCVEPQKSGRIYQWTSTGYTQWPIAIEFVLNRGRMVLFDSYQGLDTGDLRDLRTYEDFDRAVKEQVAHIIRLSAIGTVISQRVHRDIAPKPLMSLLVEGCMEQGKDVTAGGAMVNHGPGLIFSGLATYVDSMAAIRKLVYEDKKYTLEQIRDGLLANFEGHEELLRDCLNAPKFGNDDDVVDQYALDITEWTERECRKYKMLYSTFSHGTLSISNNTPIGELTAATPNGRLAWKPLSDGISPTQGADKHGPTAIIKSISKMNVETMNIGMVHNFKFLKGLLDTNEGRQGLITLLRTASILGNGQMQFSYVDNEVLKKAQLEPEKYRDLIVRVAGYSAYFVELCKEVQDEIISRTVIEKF
CutC from Proteus mirabilis, sequence (B4EYG0 entry or part of it, further chain): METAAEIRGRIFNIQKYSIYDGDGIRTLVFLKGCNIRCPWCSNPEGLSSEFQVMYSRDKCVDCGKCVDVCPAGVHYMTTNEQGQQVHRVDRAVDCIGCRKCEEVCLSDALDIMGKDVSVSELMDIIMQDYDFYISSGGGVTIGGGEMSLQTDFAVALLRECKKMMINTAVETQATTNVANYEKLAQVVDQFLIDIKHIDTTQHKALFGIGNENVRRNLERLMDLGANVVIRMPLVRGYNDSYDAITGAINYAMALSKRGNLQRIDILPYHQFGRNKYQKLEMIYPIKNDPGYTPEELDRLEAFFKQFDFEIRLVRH
CutC from Clostridium sporogenes, sequence (A0ABD6RTF0 entry or part of it): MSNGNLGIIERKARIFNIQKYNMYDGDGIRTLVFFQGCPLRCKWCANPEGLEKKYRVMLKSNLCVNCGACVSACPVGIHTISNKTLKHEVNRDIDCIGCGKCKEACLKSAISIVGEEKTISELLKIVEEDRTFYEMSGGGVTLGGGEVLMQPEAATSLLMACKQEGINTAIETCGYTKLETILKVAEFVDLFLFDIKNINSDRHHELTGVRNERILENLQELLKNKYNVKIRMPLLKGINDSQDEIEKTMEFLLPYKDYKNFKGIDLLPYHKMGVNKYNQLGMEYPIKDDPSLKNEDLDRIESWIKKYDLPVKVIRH
CutC from Clostridium sporogenes, sequence (A0AAE4Z0A8 entry or part of it): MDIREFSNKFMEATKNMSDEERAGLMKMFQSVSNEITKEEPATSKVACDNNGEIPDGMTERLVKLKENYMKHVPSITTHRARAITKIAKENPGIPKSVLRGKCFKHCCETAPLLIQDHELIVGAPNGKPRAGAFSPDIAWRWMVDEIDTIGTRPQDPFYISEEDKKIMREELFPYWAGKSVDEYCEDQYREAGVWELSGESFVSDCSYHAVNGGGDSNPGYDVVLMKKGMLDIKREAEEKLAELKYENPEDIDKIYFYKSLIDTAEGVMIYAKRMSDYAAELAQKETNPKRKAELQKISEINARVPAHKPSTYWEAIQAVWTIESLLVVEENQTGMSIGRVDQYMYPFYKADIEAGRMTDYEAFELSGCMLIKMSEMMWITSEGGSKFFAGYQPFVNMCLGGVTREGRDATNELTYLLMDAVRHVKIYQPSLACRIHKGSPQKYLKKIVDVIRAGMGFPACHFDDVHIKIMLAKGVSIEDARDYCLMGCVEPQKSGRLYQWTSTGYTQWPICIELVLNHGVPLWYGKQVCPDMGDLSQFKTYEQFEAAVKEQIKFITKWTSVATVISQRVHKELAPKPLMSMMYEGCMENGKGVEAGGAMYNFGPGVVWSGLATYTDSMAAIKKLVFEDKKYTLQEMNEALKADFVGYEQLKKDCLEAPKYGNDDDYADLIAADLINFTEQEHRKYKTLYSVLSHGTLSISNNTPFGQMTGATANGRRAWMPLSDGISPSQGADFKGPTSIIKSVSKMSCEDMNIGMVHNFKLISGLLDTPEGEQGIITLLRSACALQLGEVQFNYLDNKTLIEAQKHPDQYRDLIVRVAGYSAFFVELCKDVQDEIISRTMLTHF

Compound | IC50 [1] | IC50 [2, 4] | % change from vehicle control + choline diet [3] | Mean plasma TMAO [3] | IC50 ([2]; read-out: Average IC50 Whole cell P. mirabilis; d9-TMA from 1 mM d9-choline, 5 h, 37° C.; value 10 given when no fit or % TMA remaining at 10 μM higher than 15%)
C#CC[N+]1(C)CCC[C@H]1CO (stereo partly drawn) [Compound 108, (2S)-2-(hydroxymethyl)-1-methyl-1-(prop-2-yn-1-yl)pyrrolidin-1-ium bromide] | 2460 nM | 2190 nM |  |  | 
C[N+]1(C)CCCC1CO (centres unmarked) [Compound 110, 2-(hydroxymethyl)-1,1-dimethylpyrrolidin-1-ium Iodide] | ≥ 10000 nM | ≥ 10000 nM |  |  | 
C#CC[N+]1(C)CC[C@H](O)C1 (stereo partly drawn) [Compound 112, (3S)-3-hydroxy-1-methyl-1-(prop-2-yn-1-yl)pyrrolidin-1-ium bromide] | 280 nM | 550 nM |  |  | 
C#CC[N+]1(C)CC[C@@H](O)C1 (stereo partly drawn) [Compound 113, (3R)-3-hydroxy-1-methyl-1-(prop-2-yn-1-yl)pyrrolidin-1-ium bromide] | 1250 nM | 700 nM |  |  | 
C[N+]1(CF)CC[C@H](O)C1 (stereo partly drawn) [Compound 114, (3S)-1-(fluoromethyl)-3-hydroxy-1-methylpyrrolidin-1-ium Iodide] | 1630 nM | 2080 nM |  |  | 
C[N+]1(CF)CC[C@@H](O)C1 (stereo partly drawn) [Compound 115, (3R)-1-(fluoromethyl)-3-hydroxy-1-methylpyrrolidin-1-ium Iodide] | 9850 nM | 2070 nM |  |  | 
C[N+]1(C)CC[C@@H](O)C1 [Compound 116, (R)-3-hydroxy-1,1-dimethylpyrrolidin-1-ium Iodide] | ≥ 10000 nM | ≥ 10000 nM |  |  | 
C[N+]1(C)CC[C@H](O)C1 [Compound 117, (S)-3-hydroxy-1,1-dimethylpyrrolidin-1-ium Iodide] | ≥ 10000 nM | ≥ 10000 nM |  |  | 
C[N+](C)(C)CCCC(=O)O [Compound 127, 3-carboxy-N,N,N-trimethylpropan-1-aminium Iodide] | ≥ 10000 nM | 5010 nM |  |  | 
C[N+](C)(C)CCNC=O [Compound 128] | ≥ 10000 nM | ≥ 10000 nM |  |  | 
C#CC[N@@+]1(C)CCC[C@@H]1CO [Compound 129, (1R,2R)-2-(hydroxymethyl)-1-methyl-1-(prop-2-yn-1-yl)pyrrolidin-1-ium Bromide] | ≥ 10000 nM | ≥ 10000 nM |  |  | 
C#CCC[N+](C)(C)C [Compound 130] | ≥ 10000 nM | 3470 nM |  |  | 
C[N+](C)(C)CC#CCO [Compound 132, 4-hydroxy-N,N,N-trimethylbut-2-yn-1-aminium Chloride] | ≥ 10000 nM | ≥ 10000 nM |  |  | 
C#CC(C)[N+](C)(C)C (centres unmarked) [Compound 133] | 440 nM | 660 nM |  |  | 
C[N+]1(C)CCCC1COCc1ccccc1 (centres unmarked) [Compound 134, 2-[(benzyloxy)methyl]-1,1-dimethylpyrrolidin-1-ium Iodide] | ≥ 10000 nM | ≥ 10000 nM |  |  | 
C#CC1CC[N+](C)(C)C1 (centres unmarked) [Compound 137, 3-ethynyl-1,1-dimethylpyrrolidin-1-ium Iodide] | ≥ 10000 nM | ≥ 10000 nM |  |  | 
C#CC[N+](C)(C)CCCO [Compound 138, N-(3-hydroxypropyl)-N,N-dimethylprop-2-yn-1-aminium Trifluoroacetate] | 5350 nM | 1050 nM |  |  | 
C[S+]([O-])C[N+](C)(C)C (centres unmarked) [Compound 140, (methanesulfinylmethyl)trimethylazanium Chloride] | ≥ 10000 nM | ≥ 10000 nM |  |  | 
C#CC[N+](C)(C)CCCCO.O=C([O-])C(F)(F)F [Compound 141, 4-hydroxy-N,N-dimethyl-N-(prop-2-yn-1-yl)butan-1-aminium Trifluoroacetate] | ≥ 10000 nM | 5250 nM | −88.23% | 2.92 µM | 
C[N+](C)(C)CCCP(=O)(O)O [Compound 143, N,N,N-trimethyl-3-phosphonopropan-1-aminium Trifluoroacetatetrifluoroacetatetrifluoroacetatetrifluoroacetatetrifluoroacetate] | ≥ 10000 nM |  |  |  | ≥ 10000 nM
C#CC[N+](C)(C)CCCC(=O)O [Compound 144, N-(3-carboxypropyl)-N,N-dimethylprop-2-yn-1-aminium Iodide] | 700 nM | 580 nM |  |  | 
C[N+](C)(CCO)c1ccccc1 [Compound 145] | 1380 nM | ≥ 10000 nM |  |  | 
C[N+](C)(CF)CC(O)O [Compound 146] | 1500 nM | ≥ 10000 nM |  |  | 
C#CC[N+](C)(C)CCCCC(=O)O [Compound A51, 4-carboxy-N,N-dimethyl-N-(prop-2-yn-1-yl)butan-1-aminium Bromide] | 930 nM | 1100 nM |  |  | 
C#CC[N+](C)(C)CC(=C)C(=O)O.[Br-] [Compound B52, 2-carboxy-N,N-dimethyl-N-(prop-2-yn-1-yl)prop-2-en-1-aminium Bromide] | 10 nM | 40 nM and 30 nM | 20.76% | 30.0 µM | 
C#CCn1ccnc1 [Compound Z76, 1-(prop-2-yn-1-yl)-1H-imidazole] | ≥ 10000 nM | 4040 nM |  |  | 
